# Assays:
# U2OS-SCR reporter cells = experiment: HR/SCR reporter assay (GFP-positive cells by flow cytometry and fluorescence microscopy); format: cell-based; details: for CO-mediated HR (GFP-positive cells) under ATM/ATR blockade: inhibitor 20 μM 1 hour prior to CO 250 ppm for 24 hours; for number of GFP-positive cells (HR repair of DSB): U2OS-SCR cells transfected with SceI 24 hours, then treated 24 hours, CO 250 ppm
# Source text: To test this, the U20S cell line containing the HR/SCR (homologous recombination/sister chromatid recombination) reporter was used as previously described (12,13). I-SceI endonuclease was used to introduce a double strand break (DSB) within the reporter in U2OS cells. The efficiency of homologous recombination induced by I-SceI correlated with generation of wild type GFP by gene conversion.
# (§1) Many of the effects observed with HO-1 are mediated by one or more of its enzymatic products biliverdin or CO. Therefore, the role of biliverdin and CO was tested separately in HR during DSB and DNA repair. U2OS-SCR reporter cells after transfection with SceI for 24 hours were treated with CO 250 (ppm) for 24 hours. […] No effects of CO were observed on NHEJ-mediated DNA repair as measured by number of XHATM-resistant colonies.
# (§2) Lysates of PC3 and HEK cells were treated with CO (250 ppm) for 2′ to 1 h. […] Therefore, the two major DNA repair kinases, ATM and ATR, were examined to see if they are implicated in accelerated HR in the presence of CO or HO-1. […] U20S-SCR reporter cells were transfected with SceI for 24 hours and treated with CGK733 (20 μM) or DMSO for 1 hour prior treatment with CO (250 ppm) for 24 hours. U20S-SCR reporter cells were co-transfected with SceI for 24 hours and KU55933 (20 μM) or DMSO for 1 hour prior treatment with CO (250 ppm) was applied for following 24 hours. […] U20S-SCR reporter cells were co-transfected with SceI and HO-1 for 24 hours and CGK733 was applied for following 24 hours.
# (§3) U203 HR/SCR cells were maintained in the DMEM medium (Gibco, Invitrogen) containing 10% FBS and antibiotics. pPHW1 cells (NHEJ model) were maintained in the DMEM medium with 10% FBS and antibiotics. Mouse kidney fibroblasts were obtained from adult Hmox1^−/− and Hmox1^+/+ mice and culture between passages 4-7 in DMEM medium supplemented with 10% FBS and antibiotics. HEK293 were purchased from ATCC and were cultured following manufacturer's protocol. For CO in vitro studies, cells were exposed to 250 ppm CO, 5% CO2 in […] for 2 minutes to 24 hours. Cells were irradiated with 10 Gy and harvested at different time points after single exposure.
# HR/SCR reporter U20S cells were used as previously described. Briefly, GFP+ cells were analyzed 2 days postransfection by flow cytometry (FACScan, BD Biosciences) and fluorescence microscopy. Images of GFP-positive cells were captured of randomized fields using a Zeiss Apotome fluorescent microscope.
# [1] = test system: fibroblasts from Hmox1+/+ and Hmox1−/− mice; experiment: H2AX phosphorylation / γ-H2AX foci in mouse fibroblasts treated with genotoxins; format: cell-based; details: doxorubicin 10 μg/ml, camptothecin 1 μg/ml; for phosphorylation of histone H2AX and γ-H2AX foci: Hmox+/+ fibroblasts
# Procedure: Representative pictures are shown from at least two independent experiments in duplicates. Fibroblasts were treated with doxorubicin (10 μg/ml) for 2-4 hr.
# as §3
# HEK293 cells = experiment: Western blot of DNA repair signaling in HEK293 cells treated with genotoxins; format: cell-based; details: 2 min to 2 h
# Procedure: The direct effects of HO-1 was tested on signaling pathways in response to the DNA damaging agents, doxorubicin, camptothecin, or irradiation in loss and gain of function studies with HO-1. HEK293cells express high basal levels of HO-1 due to presence of large T antigen. HEK293 cells were transduced with micro-adapted shRNA to stably deplete HO-1 and then exposed to camptothecin, doxorubicin or irradiation. HEK293 cells with stable knockdown of HO-1 (mirHO-1) and control cells were treated with camptothecin (1 μg/ml) for 2′-2 h. The levels of HO-1 and DNA repair signaling proteins activation was measured by Western blot.
# The status of the major DNA repair kinases, ATR, and ATM and their downstream targets was evaluated in HEK293 cells treated with camptothecin.
# HEK mirHO-1 and control cells treated with doxorubicin (10 μg/ml) for 2′-2 h is shown. […] Akt is a loading control for the immunoblot for P-p53.
# H2AXγ foci in tissues = experiment: DNA damage (H2AXγ foci) in tissues of nude mice with PC3 tumors treated with doxorubicin ± CO; format: in vivo
# Procedure: Based on the effects observed in vitro, the salutary effects of CO were tested in an in vivo model of DNA damage in mice. Tissues were harvested 14 days after treatment of nude mice with established PC3 tumors (2 weeks) with […] (Control) or doxorubicin (8 mg/kg, twice per week, i.v.)±CO (daily, 1 hour, 250 ppm). Doxorubicin was employed to induce DNA damage in the tissues during chemotherapeutic treatment of tumor xenografts in nude mice.
# Nu/nu mice were purchased from Taconic (Hudson, N.Y.) at 7 weeks of age. Those mice were used in a complementary experiment of a subcutaneous tumor model of PC3 cells injected into the right flank of mice. Doxorubicin (8 mg/kg, Sigma) was given i.v. twice per week and mice were exposed to CO daily (250 ppm for 1 hour). Tissues were harvested after 2 weeks of treatment.
# irradiated mice = experiment: Radiation-induced model of DNA damage (lethal irradiation, 10 Gy); format: in vivo
# Procedure: To support the observations with chemical genotoxins, a radiation-induced model of DNA damage was also used. Endogenous HO-1 is induced early in response to IR or doxorubicin and its expression is sustained for 24-72 hours in the spleen, liver and kidney (FIGS. 7A-B). Kidneys and spleen were harvested after 2 hours after irradiation. To evaluate the role of exogenous CO, mice were pretreated with CO for 1 hour prior to either a lethal or sublethal dose of irradiation and then daily for 1 hour. Spleens and intestines of mice were pretreated with Air or CO (250 ppm) 1 hour prior lethal dose of irradiation (10 Gy) and treated daily with CO for 11 days. […] Tissues were harvested 2 hours after irradiation. To evaluate the role of H2AX signaling in CO effects on DNA repair, marginal bone marrow transplantation of BM cells from H2ax^−/− and H2ax^+/+ mice into wild type irradiated recipients was used. Mice were treated with CO prior lethal dose of irradiation (10 Gy) and thereafter after receiving BM.
# Male C57BL/6 mice 7-9 weeks of age were purchased from Jackson Laboratories (Bar Harbor, Me.). Mice were held under SPF conditions and the experiments were approved by the IACUC at BIDMC. Mice were irradiated with 10 Gy (lethal dose) or 5 Gy (sublethal dose) and the protocol was approved by Radiation Safety Officer at BIDMC and the IACUC. Mice were exposed in plexiglass chamber to CO for 1 hour, 250 ppm prior irradiation and thereafter every day for 1 hour.
# Mice were lethally irradiated and transplanted with […] i.v. immediately after irradiation. The amount of injected BM was sufficient for recovery of 40% mice.
# [2] = test system: lung and intestine gene expression; experiment: Gene expression in tissues of mice exposed to inhaled CO (real time PCR); format: in vivo
# Procedure: This is important given that the lung has such a high rate of cellular turnover. The increase in expression of these genes is associated with decreased senescence and extension of life span.
# Male C57Bl/6 mice were exposed to inhaled carbon monoxide at 250 parts per million (ppm) for 1 hour. […] Real time PCR for telomerase in lungs, and topoisomerase (responsible for unwinding of DNA) and p16 (cell cycle suppressor) in intestines was performed, and expression was compared to air-exposed controls (FIG. 10). Results represent mean±SD of at least 3 mice/group, * p<0.05.
# pPHW1 cells (NHEJ model) = experiment: NHEJ-mediated DNA repair (number of XHATM-resistant colonies); format: cell-based
# Procedure: as §1, §3
# HEK cells = experiment: Immunoblot of DNA repair signaling after CO exposure; format: cell-based; details: CO 250 ppm, 2 minutes to 1 h
# Procedure: as §2, §3
# [3] = CO 250 ppm 1 hour, harvested immediately, versus air
# [4] = CO 1 hour, harvested at 24 hours
compound,measurement,setting,value
O=c1cc(-c2cccc3c2Sc2ccccc2S3)oc(N2CCOCC2)c1 [KU55933],CO-mediated HR (GFP-positive cells) under ATM/ATR blockade,U2OS-SCR reporter cells,significantly decreased
CC[C@@]1(O)C(=O)OCc2c1cc1n(c2=O)Cc2cc3ccccc3nc2-1 [camptothecin],phosphorylation of histone H2AX and γ-H2AX foci,[1],strong increase
same,phosphorylation of H2AX,"HEK293 cells; wild-type HEK293 cells, camptothecin 1 μg/ml",induced phosphorylation
"COc1cccc2c1C(=O)c1c(O)c3c(c(O)c1C2=O)C[C@@](O)(C(=O)CO)C[C@@H]3O[C@H]1C[C@H](N)[C@H](O)[C@H](C)O1 [Doxorubicin, doxorubicin]",γ-H2AX foci formation,[1]; Hmox1−/− fibroblasts,no γ-H2AX foci formation
same,phosphorylation of histone H2AX and γ-H2AX foci,[1],strong increase
same,DNA damage by accumulation of H2AXγ foci,"H2AXγ foci in tissues; doxorubicin 8 mg/kg i.v. twice per week, 14 days, lung, liver, kidney and colon",substantial DNA damage
same,"phosphorylation of ATM, p53 and H2AX","HEK293 cells; HEK293 cells, doxorubicin 10 μg/ml",increase
"C=CC1=C(C)/C(=C/C2=NC(=C\c3[nH]c(/C=C4\NC(=O)C(C)=C4C=C)c(C)c3CCC(=O)O)/C(CCC(=O)O)=C2C)NC1=O [Biliverdin, biliverdin]",number of GFP-positive cells (HR repair of DSB),U2OS-SCR reporter cells,no effect
"[C-]#[O+] [CO, carbon monoxide]",sustained H2AXγ foci formation in spleen and intestine,"irradiated mice; CO 250 ppm 1 hour prior to 10 Gy, then daily for 11 days",significant inhibition
same,"P-p53, P-Brca1, P-ATM and early P-H2AX in peripheral blood mononuclear cells and bone marrow","irradiated mice; CO 1 hour prior to irradiation, tissues harvested 2 hours after irradiation, versus air",strong induction
same,"survival rate, mice alive >10 days","irradiated mice; lethal irradiation, CO 250 ppm 1 hour prior and daily, n=6/group, p=0.031 versus air (50%)",80%
same,CO-mediated protection against irradiation-induced death with H2ax−/− donor BM,irradiated mice; marginal bone marrow transplantation into wild type recipients irradiated with 10 Gy,reversed
same,expression of p16 in intestines,[2]; [3],increases expression
same,expression of telomerase in lungs,[2]; [3],increases expression
same,expression of topoisomerase in intestines,[2]; [3],increases expression
same,expression of SIRT1 in the lung,[2]; [4],increased expression
same,expression of TERT in the lung,[2]; [4],increased expression
same,severity of doxorubicin-induced DNA damage (H2AXγ) in all organs,"H2AXγ foci in tissues; CO daily, 1 hour, 250 ppm, with doxorubicin",significantly decreased
same,"NHEJ-mediated DNA repair, number of XHATM-resistant colonies",pPHW1 cells (NHEJ model),No effects
same,"phosphorylation of Brca1, ATR and ATM",HEK cells,induced rapid phosphorylation
same,number of GFP-positive cells (HR repair of DSB),U2OS-SCR reporter cells,significantly increased
O=C(NC(NC(=S)Nc1ccc(F)c([N+](=O)[O-])c1)C(Cl)(Cl)Cl)C(c1ccccc1)c1ccccc1 (centres unmarked) [CGK733],HO-1-induced HR (GFP-positive cells) in presence of inhibitor,"U2OS-SCR reporter cells; co-transfected with SceI and HO-1 for 24 hours, inhibitor applied following 24 hours",did not increase HR
same,CO-mediated HR (GFP-positive cells) under ATM/ATR blockade,U2OS-SCR reporter cells,significantly decreased

# From patent US9987302B2, “Methods of treating DNA damage” (priority 2011, dated 2018)
